Measurements taken from patent US6737383B1, “Herbicidal oxadiazolidines” (priority 1999, dated 2004).

How the values were obtained:
pigweed = test: Test B pre/postemergence pigweed; type: in vivo, Amaranthus retroflexus
How it was run: (§1)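 Test chemicals in a non-phytotoxic solvent mixture with surfactant were sprayed preemergence onto planted seeds and postemergence onto plants 2 to 18 cm tall (1- to 4-leaf stage). After twelve to sixteen days in a greenhouse, injury was visually rated against untreated controls from 0 (no effect) to 10 (complete control).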

rape = test: Test B pre/postemergence rape; type: in vivo, Brassica napus
How it was run: as §1

soybean = test: Test B pre/postemergence soybean; type: in vivo, Glycine max
How it was run: as §1

velvetleaf = test: Test B pre/postemergence velvetleaf; type: in vivo, Abutilon theophrasti
How it was run: as §1

sugar beet = test: Test B pre/postemergence sugar beet; type: in vivo, Beta vulgaris
How it was run: as §1

cocklebur = test: Test B pre/postemergence cocklebur; type: in vivo, Xanthium strumarium
How it was run: as §1

wild oat = test: Test B pre/postemergence wild oat; type: in vivo, Avena fatua
How it was run: as §1

giant foxtail = test: Test B pre/postemergence giant foxtail; type: in vivo, Setaria faberii
How it was run: as §1

bedstraw = test: Test B pre/postemergence bedstraw; type: in vivo, Galium aparine
How it was run: as §1

duck salad = test: Test B flood test duck salad; type: in vivo, Heteranthera limosa
How it was run: (§2)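 Read-out is a visual response score from 0 (no effect) to 10 (complete control), assigned by comparison with untreated controls. Treatment was applied at the 2-leaf stage, and plants stayed in the greenhouse for twelve to sixteen days before scoring.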

surinam grass = test: Test B pre/postemergence surinam grass; type: in vivo, Brachiaria decumbens
How it was run: as §1

wheat = test: Test B pre/postemergence wheat; type: in vivo, Triticum aestivum
How it was run: as §1

morningglory = test: Test B pre/postemergence morningglory; type: in vivo, Ipomoea hederacea
How it was run: as §1

bamyardgrass = test: Test B flood test barnyardgrass; type: in vivo, Echinochloa crus-galli
How it was run: as §2

crabgrass = test: Test B pre/postemergence crabgrass; type: in vivo, Digitaria sanguinalis
How it was run: as §1

blackgrass = test: Test B pre/postemergence blackgrass; type: in vivo, Alopecurus myosuroides
How it was run: as §1

corn = test: Test B pre/postemergence corn; type: in vivo, Zea mays
How it was run: as §1

rice = test: Test B flood test rice; type: in vivo, Oryza sativa
How it was run: as §2

purple nutsedge = test: Test B pre/postemergence purple nutsedge; type: in vivo, Cyperus rotundus
How it was run: as §1

smallflower flatsedge = test: Test B flood test smallflower flatsedge; type: in vivo, Cyperus difformis
How it was run: as §2

[1] = Preemergence, Rate 62 g/ha, scale of 0 to 10 where 0 is no effect and 10 is complete control
[2] = Preemergence, Rate 250 g/ha, scale of 0 to 10 where 0 is no effect and 10 is complete control
[3] = Preemergence, Rate 500 g/ha, scale of 0 to 10 where 0 is no effect and 10 is complete control
[4] = Rate 125 g/ha, Preemergence, scale of 0 to 10 where 0 is no effect and 10 is complete control
[5] = Rate 500 g/ha, Postemergence, scale 0 to 10, 0 no effect, 10 complete control
[6] = Rate 62 g/ha, Postemergence, scale of 0 to 10 where 0 is no effect and 10 is complete control
[7] = Rate 125 g/ha, Postemergence, scale 0 to 10
[8] = Rate 62 g/ha, headed Pre-emergence (flood test species), scale 0 to 10 (0 no effect, 10 complete control)
[9] = Rate 125 g/ha, Pre-emergence, flood test species, scale 0 to 10 where 0 is no effect and 10 is complete control
[10] = Rate 250 g/ha, Pre-emergence, flood-test species, scale 0 to 10, 0 is no effect, 10 is complete control
[11] = Rate 500 g/ha, Pre-emergence, flood test species, scale 0 to 10 (0 no effect, 10 complete control)

C=CCn1c(=O)on(C(=O)N(c2ccc(F)cc2)C2CCCCCC2)c1=O [Compound 249]
Redroot pigweed plant response rating (pigweed; [1]): 0
Redroot pigweed plant response rating (pigweed; [2]): 0
Plant response rating, Redroot pigweed (pigweed; [3]): 0
Redroot pigweed plant response rating (pigweed; [4]): 0
Plant response rating (0 to 10; 0 is no effect, 10 is complete control), Redroot pigweed (pigweed; Rate 250 g/ha, Postemergence): 0
Redroot pigweed plant response rating (pigweed; [5]): 3
Rape plant response rating (rape; [1]): 0
Rape plant response rating (rape; [2]): 0
Plant response rating, Rape (rape; [3]): 0
Rape plant response rating (rape; [4]): 0
Plant response rating (0 to 10; 0 is no effect, 10 is complete control), Rape (rape; Rate 250 g/ha, Postemergence): 0
Rape plant response rating (rape; [5]): 0
Soybean plant response rating (soybean; [1]): 0
Soybean plant response rating (soybean; [2]): 0
Plant response rating, Soybean (soybean; [3]): 0
Soybean plant response rating (soybean; [4]): 0
Soybean plant response rating (soybean; [5]): 4
Velvetleaf plant response rating (velvetleaf; [1]): 0
Velvetleaf plant response rating (velvetleaf; [2]): 0
Plant response rating, Velvetleaf (velvetleaf; [3]): 0
Velvetleaf plant response rating (velvetleaf; [4]): 0
Velvetleaf plant response rating (velvetleaf; [5]): 0
Sugarbeets plant response rating (sugar beet; [1]): 0
Sugarbeets plant response rating (sugar beet; [2]): 0
Plant response rating, Sugarbeets (sugar beet; [3]): 0
Sugarbeets plant response rating (sugar beet; [4]): 0
Sugarbeets plant response rating (sugar beet; [5]): 2
Cocklebur plant response rating (cocklebur; [1]): 0
Cocklebur plant response rating (cocklebur; [2]): 0
Plant response rating, Cocklebur (cocklebur; [3]): 0
Cocklebur plant response rating (cocklebur; [6]): 0
Cocklebur plant response rating (cocklebur; [7]): 0
Cocklebur plant response rating (cocklebur; [4]): 0
Plant response rating (0 to 10; 0 is no effect, 10 is complete control), Cocklebur (cocklebur; Rate 250 g/ha, Postemergence): 0
Cocklebur plant response rating (cocklebur; [5]): 0
Wild oats plant response rating (wild oat; [1]): 0
Wild oats plant response rating (wild oat; [2]): 0
Plant response rating, Wild oats (wild oat; [3]): 0
Wild oats plant response rating (wild oat; [4]): 0
Wild oats plant response rating (wild oat; [5]): 0
Giant foxtail plant response rating (giant foxtail; [1]): 0
Giant foxtail plant response rating (giant foxtail; [2]): 3
Plant response rating, Giant foxtail (giant foxtail; [3]): 5
Giant foxtail plant response rating (giant foxtail; [4]): 0
Plant response rating (0 to 10; 0 is no effect, 10 is complete control), Giant foxtail (giant foxtail; Rate 250 g/ha, Postemergence): 0
Giant foxtail plant response rating (giant foxtail; [5]): 0
Bedstraw plant response rating (bedstraw; [1]): 0
Bedstraw plant response rating (bedstraw; [2]): 0
Plant response rating, Bedstraw (bedstraw; [3]): 0
Bedstraw plant response rating (bedstraw; [6]): 0
Bedstraw plant response rating (bedstraw; [7]): 0
Plant response rating (0 to 10; 0 is no effect, 10 is complete control), Bedstraw (bedstraw; Rate 250 g/ha, Postemergence): 0
Bedstraw plant response rating (bedstraw; [5]): 0
Ducksalad plant response rating (duck salad; [8]): 0
Ducksalad plant response rating (duck salad; [9]): 0
Ducksalad plant response rating (duck salad; [10]): 0
Ducksalad plant response rating (duck salad; [11]): 0
B. signalgrass plant response rating (surinam grass; [1]): 0
B. signalgrass plant response rating (surinam grass; [2]): 0
Plant response rating, B. signalgrass (surinam grass; [3]): 0
B. signalgrass plant response rating (surinam grass; [6]): 0
B. signalgrass plant response rating (surinam grass; Rate 125 g/ha, Postemergence, scale 0 (no effect) to 10 (complete control)): 0
B. signalgrass plant response rating (surinam grass; [4]): 0
Plant response rating (0 to 10; 0 is no effect, 10 is complete control), B. signalgrass (surinam grass; Rate 250 g/ha, Postemergence): 0
B. signalgrass plant response rating (surinam grass; [5]): 0
Wheat plant response rating (wheat; [1]): 0
Wheat plant response rating (wheat; [2]): 0
Plant response rating, Wheat (wheat; [3]): 0
Wheat plant response rating (wheat; [4]): 0
Wheat plant response rating (wheat; [5]): 0
Morningglory plant response rating (morningglory; [1]): 0
Morningglory plant response rating (morningglory; [2]): 0
Plant response rating, Morningglory (morningglory; [3]): 0
Morningglory plant response rating (morningglory; [4]): 0
Plant response rating (0 to 10; 0 is no effect, 10 is complete control), Morningglory (morningglory; Rate 250 g/ha, Postemergence): 0
Morningglory plant response rating (morningglory; [5]): 3
Barnyardgrass plant response rating (bamyardgrass; [8]): 0
Barnyardgrass plant response rating (bamyardgrass; [9]): 0
Barnyardgrass plant response rating (bamyardgrass; [10]): 0
Barnyardgrass plant response rating (bamyardgrass; [11]): 0
Crabgrass plant response rating (crabgrass; [1]): 0
Crabgrass plant response rating (crabgrass; [2]): 0
Plant response rating, Crabgrass (crabgrass; [3]): 2
Crabgrass plant response rating (crabgrass; [4]): 0
Plant response rating (0 to 10; 0 is no effect, 10 is complete control), Crabgrass (crabgrass; Rate 250 g/ha, Postemergence): 0
Crabgrass plant response rating (crabgrass; [5]): 0
Blackgrass plant response rating (blackgrass; [1]): 0
Blackgrass plant response rating (blackgrass; [2]): 0
Plant response rating, Blackgrass (blackgrass; [3]): 0
Blackgrass plant response rating (blackgrass; [6]): 0
Blackgrass plant response rating (blackgrass; [7]): 0
Blackgrass plant response rating (blackgrass; [4]): 0
Plant response rating (0 to 10; 0 is no effect, 10 is complete control), Blackgrass (blackgrass; Rate 250 g/ha, Postemergence): 0
Blackgrass plant response rating (blackgrass; [5]): 0
Corn plant response rating (corn; [1]): 0
Corn plant response rating (corn; [2]): 0
Plant response rating, Corn (corn; [3]): 0
Corn plant response rating (corn; [6]): 0
Corn plant response rating (corn; [7]): 0
Corn plant response rating (corn; [4]): 0
Plant response rating (0 to 10; 0 is no effect, 10 is complete control), Corn (corn; Rate 250 g/ha, Postemergence): 0
Corn plant response rating (corn; [5]): 0
Rice plant response rating (rice; [8]): 0
Rice plant response rating (rice; [9]): 0
Rice plant response rating (rice; [10]): 0
Rice plant response rating (rice; [11]): 0
Nutsedge plant response rating (purple nutsedge; [1]): 0
Nutsedge plant response rating (purple nutsedge; [2]): 0
Plant response rating, Nutsedge (purple nutsedge; [3]): 0
Nutsedge plant response rating (purple nutsedge; [4]): 0
Plant response rating (0 to 10; 0 is no effect, 10 is complete control), Nutsedge (purple nutsedge; Rate 250 g/ha, Postemergence): 0
Nutsedge plant response rating (purple nutsedge; [5]): 0
S. Flatsedge plant response rating (smallflower flatsedge; [8]): 0
S. Flatsedge plant response rating (smallflower flatsedge; [9]): 0
S. Flatsedge plant response rating (smallflower flatsedge; [10]): 0
S. Flatsedge plant response rating (smallflower flatsedge; [11]): 0
